Values joined by “and” are separate entries in the source; they are usually repeats but may differ in a detail not shown here. Identical values can stand only once. Counter-ions that a name gives are not always drawn.
Target: T1, thioredoxin (11.6 kDa) (Escherichia coli, UniProt P0AA25)
T1 construct: purchased Sigma Aldrich; host or cells: E. coli
Test: Photochemical labeling of thioredoxin (LC/MS, MS-MS)
Type: biochemical
Experimental: General Procedure B: Photochemical Irradiation of Peptides and Proteins: To a 2 mL Pyrex LC/MS vial (Thermo model #03-391-39) were sequentially added solutions containing the desired biomolecule, glutathione (GSH), pyridinium salt, and ammonium acetate (NH4OAc). The resulting solution was diluted to a final volume of 500 μL and then sparged using nitrogen for a minimum of 30 minutes prior to irradiation. The actively sparging solution was then placed in an EvoluChem™ PhotoRedOx Box photoreactor that was equipped with a Kessil, PR160 427 nm LED Lamp and was then irradiated (100% lamp intensity) for the designated time at room temperature while maintaining active sparging. The resultant reaction mixture was then analyzed directly by LC/MS. Analysis of labeling outcomes using LC/MS was performed either by extracted ion chromatogram intensities (method A) or by integrating the area under the peaks associated with peptide content (method B). These values were totaled, and estimated percentages were assigned according to relative intensities of peaks or ion counts.
Labeling of Thioredoxin with Pyridinium Salt 2a (Thioredoxin-2a Conjugate). […] The reaction mixture was directly analyzed by LC/MS using method A and was estimated to have proceeded with 93% conversion and a 14.5:1 mono:di labeled ratio and 3% glutathionylation of all protein content. […]

T1 sequence (P0AA25 whole entry): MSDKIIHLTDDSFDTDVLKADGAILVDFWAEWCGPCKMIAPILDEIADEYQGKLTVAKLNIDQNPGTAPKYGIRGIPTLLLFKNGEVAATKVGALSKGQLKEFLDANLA

In the case of COC(=O)N(C)[n+]1c(C)cc(-c2ccc3cc(OC)ccc3c2)cc1C [Pyridinium salt 2a, 1-((methoxycarbonyl)(methyl)amino)-4-(6-methoxynapthalen-2-yl)-2,6-dimethylpyridin-1-ium tetrafluoroborate], the conversion (10 μM thioredoxin, 200 μM pyridinium salt, 300 μM glutathione, 20 mM NH4OAc pH 6.9, 427 nm, 60 minutes) is reported as 93% and 87% and the “site of tryptophan modification” value (digestion/MS-MS) is reported as “Trp-31”.

From patent publication US20240262844A1, “PYRIDINIUM SALTS AND METHODS OF USE” (UNIVERSITY OF WYOMING, priority 2023, published 2024)
